Values of other authors in patent publication US8956592B2, “Oral care compositions” (Colgate-Palmolive Company, priority 2010, dated 2015).

Tested on: S. mutans, F. nucleatum, V. parvula, A. naslundii, P. gingivitis
Settings: in vitro tests

SMILES | bactericidal properties against representative oral bacteria
C=CCc1ccc(O)c(-c2ccc(O)c(CC=C)c2)c1 [honokiol] | bactericidal properties
C=CCc1ccc(O)c(-c2cc(CC=C)ccc2O)c1 [magnolol] | bactericidal properties
CCCc1ccc(O)c(-c2ccc(O)c(CCC)c2)c1 [tetrahydrohonokiol, 3′,5-dipropylbiphenyl-2,4′-diol] | bactericidal properties
CCCc1ccc(O)c(-c2cc(CCC)ccc2O)c1 [tetrahydromagnolol, 5,5′-dipropylbiphenyl-2,2′-diol] | bactericidal properties
